# Assay results reported in article PMC2751816, “Functional, Non-Clonal IgM^a-Restricted B Cell Receptor Interactions with the HIV-1 Envelope gp41 Membrane Proximal External Region” (PLoS ONE, 2009).
# “Also recorded” adds a separate entry of the source.
# Legend:
# [1] = tested on: expressed IgM^+ VH repertoire of splenic BALB/c B cells; assay: VH family usage in gp41 MPER tetramer-sorted IgM^+ B cells (5' RACE); design: species or system mouse (BALB/c); settings: compared to total IgM^+ BALB/c B cells; Fisher Exact test; two sorts; Fig. 6B
# Text: For sorting of gp41 MPER tetramer-binding B cells, single cell splenic suspensions were obtained from 5–10 naïve BALB/c 8 wk females, pooled, and purified by negative depletion with CD43 MACS beads (Miltenyi Biotechnology). The resulting B cell enriched fraction was stained as described in the flow cytometry methods section and sorted into B220^+ CD19^+ gp41 MPER^+ fractions using a BDFACS Aria. Sorting gates for the gp41 MPER^+ fractions were set to include all events greater than baseline staining without tetramer. Purity of sorted populations was verified by a 1000-event post-sort step.
# For 5′ RACE analysis, gp41 MPER^+ fractions (or purified, unsorted splenic B cells) were spun down and washed, immediately after sorting. DNAse-free RNA was extracted and concentrated using RNEasy Mini and Micro kits, respectively (Qiagen) and quantitated using a NanoDrop ND-1000 spectrophotometer (Fisher). cDNA was synthesized by oligo-dT priming using SuperScript III (Invitrogen) and IgM-specific 5′ RACE products were amplified with the First Choice RLM-RACE PCR kit (Ambion), using mouse HC̃-specific primers in combination with 5′ RACE primers, according to the manufacturer's instructions. PCR products were cloned into pGEM-T Easy vectors (Promega), transformed in GC5 competent cells (CLP), and transformant DNA was isolated, sequenced and analyzed in Ig Blast.
# [2] = tested on: protein tyrosine phosphorylation in BALB/c splenic B cells; assay: Phosphotyrosine immunoblot of stimulated splenic B cells; type: cell-based, mouse (BALB/c); settings: saturating tetramer 20 µg/10^6 cells, Fig. 8A
# Experimental: To determine if gp41 MPER interactions with IgM^a could elicit the activating signals required for biological responses, we assessed BCR-proximal signaling events in BALB/c splenic B cells ligated with gp41 MPER tetramers. First, we determined the induction of protein tyrosine phosphorylation in cells incubated with saturating concentrations (20 µg/10^6 cells; see Fig. 1b) of gp41 MPER tetramer (Fig. 8A).
# 5×10^6 splenic BALB/c B cells were isolated by negative depletion of CD43-expressing cells with anti-mouse CD43 MACS beads (Miltenyi Biotech) to >95% purity, as assessed by flow cytometry. Purified B cells were equilibrated to 37°C in a humidified incubator and stimulated with gp41 MPER tetramers or F(ab)'2 anti-IgM (Jackson ImmunoResearch) in 5% FBS-containing DMEM media for various times. Whole cell extracts were made by lysing cell pellets in 1% NP-40 lysis buffer supplemented with PhosSTOP and complete, mini EDTA-free protease inhibitor tablets (Roche) and insoluble cellular debris was removed by centrifugation. Extracts were fractionated by reducing SDS PAGE on Novex Bis-Tris Mini gels (Invitrogen) and transferred to Invitrolon PVDF membranes (Invitrogen) using the Xcell II blot module. Primary Abs used were anti-phosphotyrosine clone 4G10 (Upstate) and anti-GAPDH (Millipore). Secondary Abs used were goat-anti-mouse IgG1 or IgG2a, both coupled to HRP (Jackson ImmunoResearch). […]
# [3] = tested on: splenic B cells, BALB/c congenic (CB17) (IgH^b); assay: Flow cytometry: tetramer staining of splenic B cells from BALB/c congenic CB17 (IgH^b) mice; type: cell-based, mouse (CB17); settings: BALB/c mice homozygous for Igh^b; Fig. 5
# Experimental: N-biotinylated, linker/spacer-containing peptides used to make tetramers are detailed in Table S4 and Fig. 7A. Peptides were synthesized and purified using reverse-phase HPLC (Primm Biotechnology). To produce tetramerized forms of each peptides, 200 µM peptide and 6 µM APC-labeled streptavadin (SA) were combined at equal volumes, and mixtures were incubated at 4°C for 4 h. Unbound peptide was removed from peptide-APC complexes by centrifugal filtration using an Amicon Centriprep YM30 column (Millipore Corporation). Purified tetramer preparations were determined using the Micro BSA protein assay kit (Pierce Biotechnology).
# Female C57BL/6, BALB/c, B6Igh^a, and CB17 (BALBc Igh^b) inbred mouse strains (8–12 wks of age) were purchased from Charles River Laboratories. All mice were housed in the Duke University Animal Facility in a pathogen-free environment with 12 h light/dark cycles at 20–25°C under AALAC guidelines and in accordance with all Institutional Animal Care and Use Committee and Duke University Institutional Biosafety Committee-approved animal protocols. […]
# FACS staining of single cell suspensions (≥2×10^6) was conducted using pre-mixed combinations of fluorochrome-labeled Abs and APC-conjugated B cell tetramers at empirically-determined optimal concentrations. […]
sequence,measurement,setting,value
"QQEKNEQELLELDKWASLWN [gp41 MPER tetramer, (residues 659–678 of the HIV-1 envelope)]",VH family usage in gp41 MPER-reactive B cells (in words),[1],"most VH families were utilized at statistically comparable levels in gp41 MPER-reactive B cells, with the exception of two overutilized VH families: 36–60 and 7183"
same,protein tyrosine phosphorylation relative to anti-IgM ligation,[2]; lower than anti-IgM ligation of equal numbers of B cells,2- to 3 fold
same,protein tyrosine phosphorylation (in words),[2]; listed as gp41 MPER tetramers,"induced rapid and reproducible patterns of protein phosphorylation; also recorded: only selected proteins were phosphorylated, including Syk, PI3K p110δ, PLC-γ2, and one or more of the Src kinase family members Lyn, Fyn, or Blk"
same,gp41 MPER binding in congenic mice (in words),[3],lost gp41 MPER binding
